# Reference: US10092568B2, “CBP/Catenin antagonists for enhancing asymmetric division of somatic stem cells” (University of Southern California, priority 2010, dated 2018)
# What was measured:
# [1] = system: Wnt/catenin transcription (TOPFLASH) in SW480 colon carcinoma cells; experiment: TOPFLASH TCF/catenin luciferase reporter in SW480 colon carcinoma cells; type: cell-based; settings: Homo sapiens
# From the text: ICG-001. Applicant's pharmacologic tools were identified using cell-based forward chemical genomic screens of small molecule secondary structure template chemical libraries (22).
# SW620 xenograft = experiment: Nude mouse SW620 xenograft model of colon cancer; type: in vivo
# From the text: Cancer. The importance of Wnt signaling in colorectal cancer is undisputed. Applicant's investigation on the therapeutic utility of ICG-001 therefore quite naturally began with colon cancer.
# [2] = system: mitotic cells in the ventricular zone (VZ); experiment: Par3 localization assay of symmetric versus asymmetric divisions in the ventricular zone of embryonic brain; type: in vivo, mouse
# From the text: Taking advantage of the ready uptake and penetration through the placental barrier of applicant's small molecule Wnt modulators, applicant designed a series of experiments to investigate symmetric versus asymmetric divisions in the ventricular zone (VZ) of the brain during mouse embryonic development. Timed pregnant mice were topically treated for various time periods (1-3 days) with DMSO (vehicle control), the CBP/catenin antagonist ICG-001 or the p300/catenin antagonist IQ-1. Using a previously described protocol (56), the localization of […] (Par3) and DNA was examined in mitotic cells in the VZ. Par3 distributes symmetrically in cells that divide symmetrically and asymmetrically in cells that divide asymmetrically, whereas the DNA distributes symmetrically between the 2 cells. Using fluorescence microscopy, the percentage of mitotic cells dividing symmetrically or asymmetrically could be quantified. […] Antagonizing the CBP/catenin interaction with ICG-001 had no apparent effect yielding similarly, approximately 21% asymmetric divisions. […] Importantly, this decrease in asymmetric divisions upon treatment with IQ-1 could be rescued back essentially to control levels (i.e. ˜21%) by treatment with a 2-fold excess of ICG-001. Even further divergence in symmetric versus asymmetric divisions could be seen upon prolonged treatments. For example, treatment with IQ-1 (i.e., antagonizing p300/catenin interaction leading to increased usage of CBP) for 3 days (E13.5-16.5) decreased asymmetric divisions compared to control from 31% to 7%. […] This reporter mouse expresses EGFP, driven by the Tis21 promoter, in cells that have undergone neurogenic differentiative divisions.
# For example, Bultje et al. (Bultje R Neuron 63, 189-202, 2009) describe an assay to measure asymmetric distributions in the ventricular zone (vz) to evaluate asymmetric divisions during neurogenesis. Essentially this involves treating the animal (either adult or in utero) for a set period of time with compounds (either p.o., s.c., i.v. or topically) with compounds and then sacrificing the animal and examining the Par3 distribution (e.g., via immunohistochemistry) in mitotic cells vs. DNA distribution (e.g., using DAPI staining) Par3 distributes equally among the two daughter cells during symmetric division and unequally (essentially all in one daughter cell) during asymmetric differentiation.
# [3] = system: human skin (surgical waste); experiment: Ex vivo human skin assay, qRT-PCR; type: cell-based; settings: 24 hrs; 5 uM ICG-001, 5 uM methylated ICG-001, 1 ug/ml RA
# Procedure: Methods. Ex Vivo human skin assay culture conditions were based upon a paper by Varani J et al Experimental and Molecular Pathology, 2004.
# Briefly, human skin (surgical waste from plastic surgery procedures) was obtained and the subcutaneous layer of fat was trimmed manually with a scalpel. The skin was then cut into small fragments about 2 mm square and placed in 6 well plates. 1 ml of keratinocyte culture medium (Gibco 10724-011) with 1% P/S (penstrep antibiotic) was added to each well. The epidermis, bathed in media was placed facing up. On the next day (overnight culture in the media above), the skin fragments were transferred to fresh wells that contained either 5 uM ICG-001, 5-uM methylated ICG-001 or 1 ug/ml of retinoic acid (RA). After 24 hrs, skin samples in culture were removed for RNA isolation and qRT-PCR analysis of genes of interest (e.g., elastin (a gene involved in skin appearance and pliability (e.g., wrinkling)) and aquaporin 1, which is involved with hydration.
structure (smiles),measurement,setting,value
O=C1[C@H](Cc2ccc(O)cc2)N2C(=O)CCN(C(=O)NCc3ccccc3)[C@H]2CN1Cc1cccc2ccccc12 [ICG-001],IC50,[1],30 µM
same,tumor growth,SW620 xenograft,reducing tumor growth
same,"asymmetric divisions in the VZ after IQ-1, rescued",[2]; IQ-1 plus 2-fold excess of ICG-001,approximately 21%
same,defect in asymmetric divisions caused by IQ-1,[2]; excess ICG-001,corrects the defect
same,number of asymmetric divisions compared to vehicle control,[2]; topical or oral administration to pregnant mice,does not affect
same,asymmetric divisions in the VZ,"[2]; topical, 1 day, E13.5 to 14.5, DMSO approximately 21%",approximately 21%
same,expression of aquaporin 1,[3],increase
same,expression of elastin,[3],increase
